Assay results published in patent US8580806B2, “Salts of 4-methyl N-[3-(4-methyl-imidazol-1-yl)-5-trifluoromethyl-phenyl]-3-(4-pyridin-3-yl-pyrimidin-2-ylamino)-benzamide” (Novartis AG, priority 2005, dated 2013).
Counter-ions that a name gives are not always drawn.

Tests used:
Format in all cases: physicochemical
[1] = Hygroscopicity by TGA after one day at ambient temperature and 93% relative humidity; conditions: ambient temperature, listed as Hydrochloride (form B)
Experimental: The hygroscopicity of the salts of the invention was determined by TGA after one day at ambient temperature and 93% relative humidity.

[2] = Stability of solutions or suspensions (Table 15)
[3] = Solid state stability: heat, humidity, xenon light (Table 15)
[4] = Bulk corrosivity; conditions: 2 day, 80% relative humidity with steel coupon
[5] = Intrinsic Dissolution Rate (rotating disk method); conditions: Water, 37° C., 200 rpm
Experimental: Intrinsic Dissolution Rate (IDR): Dissolution rate measurements were performed at 37° C. using the rotating disk method (VanKell Instrument). A single rotation speed of 200 rpm was used. For IDR in 0.1 N HCl, an 800 mL volume, and for IDE in water, a 200 mL volume were used. The solution was continuously pumped through a UV measuring cell and recycled to the dissolution vessel.

[6] = pH of 1% solution or suspension in water; conditions: 1% in water
[7] = Decomposition temperature by TGA; conditions: as stated in the description of the embodiments; listed as hydrochloride salt
Experimental: The LOD and decomposition temperature of the salts of the invention were determined by TGA, and the melting point was determined by DSC.

[8] = Hygroscopicity (moisture uptake v. relative humidity); conditions: when first tested
Experimental: Hygroscopicity: Sorption/desorption isotherms were collected using a Surface Measurements Systems dynamic vapor sorption device (DVS-1). The measurements were carried out at 25° C.

[9] = Solid-state behaviour of the hydrochloride salt (equilibration, grinding, compression)
[10] = 0.1% solutions or suspensions, 1 week at 80° C., Acetonitrile
[11] = 0.1% solutions or suspensions, 1 week at 80° C., Ethanol
[12] = 0.1% solutions or suspensions, 1 week at 80° C., Methanol
[13] = 0.1% solutions or suspensions, 1 week at 80° C., Water (pH measured: 4.74; pH measured for HCl salt: 4.22)
[14] = 0.1% solutions or suspensions, 1 week at 80° C., pH 1 (pH measured: 1.26)
[15] = 0.1% solutions or suspensions, 1 week at 80° C., pH 2 (pH measured: 2.00)
[16] = 0.1% solutions or suspensions, 1 week at 80° C., pH 3 (pH measured: 2.94)
[17] = 0.1% solutions or suspensions, 1 week at 80° C., pH 5 (pH measured: 5.01)
[18] = 0.1% solutions or suspensions, 1 week at 80° C., pH 7 (pH measured: 6.02)
[19] = 0.1% solutions or suspensions, 1 week at 80° C., pH 9 (pH measured: 8.92)
[20] = 0.1% solutions or suspensions, 1 week at 80° C., pH 11 (pH measured: 10.86)
[21] = 0.1% solutions or suspensions, PH 1, 1 week @ 50° C.
[22] = 2% solutions or suspensions, 1 day at room temperature, 0.5% CMC
[23] = 2% solutions or suspensions, 1 day at room temperature, 0.5% HPMC cellulose 4000
[24] = 2% solutions or suspensions, 1 day at room temperature, 0.8% Tween 80
[25] = 5% solutions in DMSO, 1 day at room temperature, 1:100 dilution in pH 6.8 buffer
[26] = Solid state, 1 week 80° C., 75% relative humidity, 30% in mixture 1
[27] = Solid state, 1 week 80° C., 75% relative humidity, 30% in mixture 2
[28] = Solid state, 1 week 80° C., 75% relative humidity, Bulk (HPLC)
[29] = Solid state, 1 week 80° C., tight container, 30% in mixture 1
[30] = Solid state, 1 week 80° C., tight container, 30% in mixture 2
[31] = Solid state, 1 week 80° C., tight container, Bulk (HPLC)
[32] = Xenon light (approximately 200 kLuxh), Bulk (HPLC)

For `Cc1cn(-c2cc(NC(=O)c3ccc(C)c(Nc4nccc(-c5cccnc5)n4)c3)cc(C(F)(F)F)c2)cn1` [Hydrochloride monohydrate (form B), 4-methyl-N-[3-(4-methyl-imidazol-1-yl)-5-trifluoromethyl-phenyl]-3-(4-pyridin-3-yl-pyrimidin-2-ylamino)-benzamide monohydrochloride monohydrate salt], the “% moisture gain” value [1] was 0.20%, the Appearance [2, 10] was “B↓” and the Assay [2, 10] was 100.33. For the same compound, the “Assay [% area]: bracketed % area” value [2, 10] was 100.00 % area, the Appearance [2, 11] was “A*” and the Assay [2, 11] was 100.41. The “Assay [% area]: bracketed % area” value [2, 11] was 100.00 % area, the Appearance [2, 12] was “A*” and the Assay [2, 12] was 99.169. The “Assay [% area]: bracketed % area” value [2, 12] was 98.72 % area, the Appearance [2, 13] was “A↓” and the Assay [2, 13] was 101.43. The “Assay [% area]: bracketed % area” value [2, 13] was 100.00 % area, the Appearance [2, 14] was “A*” and the Assay [2, 14] was 46.68. The “Assay [% area]: bracketed % area” value [2, 14] was 42.93 % area, the Appearance [2, 15] was “B↓” and the Assay [2, 15] was 91.77. For the same compound, the “Assay [% area]: bracketed % area” value [2, 15] was 91.61 % area, the Appearance [2, 16] was “B↓” and the Assay [2, 16] was 98.84. The “Assay [% area]: bracketed % area” value [2, 16] was 100.00 % area, the Appearance [2, 17] was “A↓” and the Assay [2, 17] was 100.02. For the same compound, the “Assay [% area]: bracketed % area” value [2, 17] was 100.00 % area, the Appearance [2, 18] was “B↓” and the Assay [2, 18] was 99.56. The “Assay [% area]: bracketed % area” value [2, 18] was 100.00 % area, the Appearance [2, 19] was “B↓” and the Assay [2, 19] was 101.19. For the same compound, the “Assay [% area]: bracketed % area” value [2, 19] was 100.00 % area, the Appearance [2, 20] was “B↓” and the Assay [2, 20] was 102.19. The “Assay [% area]: bracketed % area” value [2, 20] was 100.00 % area, the Appearance [2, 21] was “A*” and the Assay [2, 21] was 94.14. The “Assay [% area]: bracketed % area” value [2, 21] was 93.21 % area, the Appearance [2, 22] was “A↓” and the Assay [2, 22] was 103.06. The “Assay [% area]: bracketed % area” value [2, 22] was 100.00 % area, the Appearance [2, 23] was “A↓” and the Assay [2, 23] was 100.44. For the same compound, the “Assay [% area]: bracketed % area” value [2, 23] was 100.00 % area, the Appearance [2, 24] was “A↓” and the Assay [2, 24] was 102.42. For the same compound, the “Assay [% area]: bracketed % area” value [2, 24] was 100.00 % area, the Appearance [2, 25] was “A↓” and the Assay [2, 25] was 101.85. For the same compound, the “Assay [% area]: bracketed % area” value [2, 25] was 100.00 % area, the Assay ([2]; Unstressed) was 99.10 and the “Assay [% area]: bracketed % area” value ([2]; Unstressed) was 100.00 % area. The “Bulk (XRPD)” value ([3]; Solid state, 1 week 80° C., 75% relative humidity) was “No change”, the Assay [3, 26] was 100.88 and the “Assay [% area]: bracketed % area” value [3, 26] was 100.00 % area. The Assay [3, 27] was 92.17, the “Assay [% area]: bracketed % area” value [3, 27] was 97.99 % area and the Assay [3, 28] was 100.71. The “Assay [% area]: bracketed % area” value [3, 28] was 100.00 % area, the “Bulk (XRPD)” value ([3]; Solid state, 1 week 80° C., tight container) was “No change” and the Assay [3, 29] was 101.23. For the same compound, the “Assay [% area]: bracketed % area” value [3, 29] was 100.00 % area, the Assay [3, 30] was 93.43 and the “Assay [% area]: bracketed % area” value [3, 30] was 97.82 % area. The Assay [3, 31] was 100.77, the “Assay [% area]: bracketed % area” value [3, 31] was 100.00 % area and the “Bulk (XRPD)” value ([3]; Xenon light (approximately 200 kLuxh)) was “No change”. The Assay [3, 32] was 99.73, the “Assay [% area]: bracketed % area” value [3, 32] was 100.00 % area and the Bulk corrosivity [4] was “No change”. For the same compound, the Intrinsic dissolution rate [5] was 0.0024 mg min^−1 cm^−2, the “pH of 1% solution or suspension in water” value [6] was 2.53 and the “decomposes at” value [7] was “about 173 °C”. The moisture uptake ([8]; 60% relative humidity) was “up to 2%”, the moisture uptake ([8]; 95% relative humidity) was “up to 2.7%” and the behaviour upon compression ([9]; compression) was “can withstand compression”. The behaviour upon grinding ([9]; grinding) was “becomes amorphous”.
